Data: patent publication US20240327364A1, “THERAPEUTIC TARGETING OF GPR68 TO INDUCE FERROPTOSIS” (University Of Maryland, Baltimore, priority 2023, published 2024)

Tests used:
[1] = target: T1, RIPK4 (Homo sapiens, UniProt P57078); test: KinomeScan; type: binding; conditions: read-out: % Control
T1 construct: purchased DiscoveRx (Fremont, CA)

[2] = target: T2, CASK (Homo sapiens, UniProt O14936); test: KinomeScan; type: binding; conditions: read-out: % Control
T2 construct: purchased DiscoveRx (KinomeScan service)
T2 sequence (O14936 whole entry): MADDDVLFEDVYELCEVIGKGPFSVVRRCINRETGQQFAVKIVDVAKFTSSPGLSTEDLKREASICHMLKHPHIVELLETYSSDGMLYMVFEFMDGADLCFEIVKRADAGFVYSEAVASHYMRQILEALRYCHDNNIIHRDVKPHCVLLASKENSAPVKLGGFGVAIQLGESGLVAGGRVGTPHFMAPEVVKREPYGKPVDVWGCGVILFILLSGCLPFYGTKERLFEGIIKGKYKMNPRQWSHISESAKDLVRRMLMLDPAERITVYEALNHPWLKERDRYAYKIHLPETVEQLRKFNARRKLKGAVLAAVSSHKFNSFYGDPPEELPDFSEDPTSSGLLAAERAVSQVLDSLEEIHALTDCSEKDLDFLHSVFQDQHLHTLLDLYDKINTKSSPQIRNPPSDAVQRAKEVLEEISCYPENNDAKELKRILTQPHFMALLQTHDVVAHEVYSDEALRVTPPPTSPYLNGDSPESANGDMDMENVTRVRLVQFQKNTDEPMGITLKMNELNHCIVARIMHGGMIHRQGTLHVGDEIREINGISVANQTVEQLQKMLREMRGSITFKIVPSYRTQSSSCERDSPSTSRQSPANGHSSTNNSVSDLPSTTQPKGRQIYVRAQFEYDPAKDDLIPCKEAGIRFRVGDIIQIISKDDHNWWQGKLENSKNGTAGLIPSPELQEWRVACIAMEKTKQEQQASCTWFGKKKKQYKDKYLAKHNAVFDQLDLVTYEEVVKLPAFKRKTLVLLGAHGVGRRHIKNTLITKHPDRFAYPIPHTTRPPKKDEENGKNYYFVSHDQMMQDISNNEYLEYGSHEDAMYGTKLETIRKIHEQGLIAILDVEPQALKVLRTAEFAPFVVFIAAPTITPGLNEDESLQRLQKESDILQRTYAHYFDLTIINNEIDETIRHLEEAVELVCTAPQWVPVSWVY

[3] = target: T3, A3 (Homo sapiens, UniProt P0DMS8); test: GPCR Profiler; type: cell-based
T3 construct: host or cells: Chem-1 cells with promiscuous Gα15
T3 sequence (P0DMS8 whole entry): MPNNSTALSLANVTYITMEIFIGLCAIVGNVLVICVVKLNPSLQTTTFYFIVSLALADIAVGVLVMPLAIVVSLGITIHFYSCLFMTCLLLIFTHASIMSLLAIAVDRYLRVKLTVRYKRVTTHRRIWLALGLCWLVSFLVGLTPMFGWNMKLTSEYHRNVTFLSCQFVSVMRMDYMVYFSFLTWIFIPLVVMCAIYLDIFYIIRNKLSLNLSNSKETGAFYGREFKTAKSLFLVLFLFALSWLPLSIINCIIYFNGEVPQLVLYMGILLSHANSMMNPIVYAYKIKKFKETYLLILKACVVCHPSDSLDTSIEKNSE

[4] = target: T4, ACVR2B (Homo sapiens, UniProt Q13705); test: KinomeScan; type: binding; conditions: read-out: % Control
T4 construct: purchased DiscoveRx

[5] = target: T5, PCTK1 (Homo sapiens, UniProt Q00536); test: KinomeScan; type: binding; conditions: read-out: % Control
T5 construct: purchased DiscoveRx

[6] = target: T6, PRKCD (Homo sapiens, UniProt Q05655); test: KinomeScan; type: binding; conditions: read-out: % Control
T6 construct: purchased DiscoveRx (Fremont, CA)
T6 sequence (Q05655 whole entry): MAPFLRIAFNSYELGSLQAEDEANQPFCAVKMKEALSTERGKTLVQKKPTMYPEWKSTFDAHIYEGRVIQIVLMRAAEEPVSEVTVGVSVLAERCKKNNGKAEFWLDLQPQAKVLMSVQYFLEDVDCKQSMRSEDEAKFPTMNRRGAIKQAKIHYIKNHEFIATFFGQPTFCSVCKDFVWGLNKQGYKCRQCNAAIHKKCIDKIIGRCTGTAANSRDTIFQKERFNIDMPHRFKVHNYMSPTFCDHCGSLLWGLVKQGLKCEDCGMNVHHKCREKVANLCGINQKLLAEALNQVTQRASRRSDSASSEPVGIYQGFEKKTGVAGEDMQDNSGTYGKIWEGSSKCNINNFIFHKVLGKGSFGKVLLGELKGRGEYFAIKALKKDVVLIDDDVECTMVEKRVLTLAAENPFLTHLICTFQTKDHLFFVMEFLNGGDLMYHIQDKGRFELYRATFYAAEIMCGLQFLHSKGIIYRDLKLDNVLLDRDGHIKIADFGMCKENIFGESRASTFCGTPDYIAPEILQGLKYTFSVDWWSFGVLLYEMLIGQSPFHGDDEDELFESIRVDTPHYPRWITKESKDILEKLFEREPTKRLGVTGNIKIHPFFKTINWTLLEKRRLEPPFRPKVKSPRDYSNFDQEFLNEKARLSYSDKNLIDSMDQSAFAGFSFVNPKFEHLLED

[7] = target: T7, LTK (Homo sapiens, UniProt P29376); test: KinomeScan; type: binding; conditions: read-out: % Control
T7 construct: purchased DiscoveRx

[8] = target: T8, BRSK2 (Homo sapiens, UniProt Q8IWQ3); test: KinomeScan; type: binding; conditions: read-out: % Control
T8 construct: purchased DiscoveRx (KinomeScan service)

[9] = target: T9, CAMKK1 (Homo sapiens, UniProt Q8N5S9); test: KinomeScan; type: binding; conditions: read-out: % Control
T9 construct: purchased DiscoveRx (KinomeScan service)

[10] = target: T10, SYK (Homo sapiens, UniProt P43405); test: KinomeScan; type: binding; conditions: read-out: % Control
T10 construct: purchased DiscoveRx (Fremont, CA)

[11] = target: T11, PIM1 (Homo sapiens, UniProt P11309); test: KinomeScan; type: binding; conditions: read-out: % Control
T11 construct: purchased DiscoveRx (Fremont, CA)
T11 sequence (P11309 whole entry): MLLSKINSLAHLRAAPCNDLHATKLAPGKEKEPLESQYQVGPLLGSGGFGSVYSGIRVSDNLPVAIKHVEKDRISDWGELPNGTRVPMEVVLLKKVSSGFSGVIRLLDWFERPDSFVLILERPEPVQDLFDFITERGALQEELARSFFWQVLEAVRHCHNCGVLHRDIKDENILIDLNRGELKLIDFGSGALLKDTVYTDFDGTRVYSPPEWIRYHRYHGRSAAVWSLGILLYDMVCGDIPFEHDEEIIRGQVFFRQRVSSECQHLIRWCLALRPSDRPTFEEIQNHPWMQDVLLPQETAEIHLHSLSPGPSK

[12] = target: DAPK1 (Homo sapiens, UniProt P53355); test: KinomeScan; type: binding; conditions: read-out: % Control
[13] = target: T12, PIP5K2C (Homo sapiens, UniProt Q8TBX8); test: KinomeScan; type: binding; conditions: read-out: % Control
T12 construct: purchased DiscoveRx (Fremont, CA)
T12 sequence (Q8TBX8 whole entry): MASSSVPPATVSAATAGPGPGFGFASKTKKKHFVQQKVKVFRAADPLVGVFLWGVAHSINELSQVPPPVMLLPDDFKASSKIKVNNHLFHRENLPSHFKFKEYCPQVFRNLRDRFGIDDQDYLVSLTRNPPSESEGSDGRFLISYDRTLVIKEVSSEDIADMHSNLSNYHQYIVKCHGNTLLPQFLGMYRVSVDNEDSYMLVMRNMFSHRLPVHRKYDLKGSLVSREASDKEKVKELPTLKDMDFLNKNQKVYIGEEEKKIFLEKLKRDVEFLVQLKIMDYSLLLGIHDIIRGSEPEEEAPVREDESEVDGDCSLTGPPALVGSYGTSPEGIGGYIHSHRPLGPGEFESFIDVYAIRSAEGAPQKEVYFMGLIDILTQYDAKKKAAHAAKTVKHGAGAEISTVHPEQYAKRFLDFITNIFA

[14] = target: T13, NEK5 (Homo sapiens, UniProt Q6P3R8); test: KinomeScan; type: binding; conditions: read-out: % Control
T13 construct: purchased DiscoveRx

[15] = target: T14, EPHB4 (Homo sapiens, UniProt P54760); test: KinomeScan; type: binding; conditions: read-out: % Control
T14 construct: purchased DiscoveRx (Fremont, CA)
T14 sequence (P54760 16-987): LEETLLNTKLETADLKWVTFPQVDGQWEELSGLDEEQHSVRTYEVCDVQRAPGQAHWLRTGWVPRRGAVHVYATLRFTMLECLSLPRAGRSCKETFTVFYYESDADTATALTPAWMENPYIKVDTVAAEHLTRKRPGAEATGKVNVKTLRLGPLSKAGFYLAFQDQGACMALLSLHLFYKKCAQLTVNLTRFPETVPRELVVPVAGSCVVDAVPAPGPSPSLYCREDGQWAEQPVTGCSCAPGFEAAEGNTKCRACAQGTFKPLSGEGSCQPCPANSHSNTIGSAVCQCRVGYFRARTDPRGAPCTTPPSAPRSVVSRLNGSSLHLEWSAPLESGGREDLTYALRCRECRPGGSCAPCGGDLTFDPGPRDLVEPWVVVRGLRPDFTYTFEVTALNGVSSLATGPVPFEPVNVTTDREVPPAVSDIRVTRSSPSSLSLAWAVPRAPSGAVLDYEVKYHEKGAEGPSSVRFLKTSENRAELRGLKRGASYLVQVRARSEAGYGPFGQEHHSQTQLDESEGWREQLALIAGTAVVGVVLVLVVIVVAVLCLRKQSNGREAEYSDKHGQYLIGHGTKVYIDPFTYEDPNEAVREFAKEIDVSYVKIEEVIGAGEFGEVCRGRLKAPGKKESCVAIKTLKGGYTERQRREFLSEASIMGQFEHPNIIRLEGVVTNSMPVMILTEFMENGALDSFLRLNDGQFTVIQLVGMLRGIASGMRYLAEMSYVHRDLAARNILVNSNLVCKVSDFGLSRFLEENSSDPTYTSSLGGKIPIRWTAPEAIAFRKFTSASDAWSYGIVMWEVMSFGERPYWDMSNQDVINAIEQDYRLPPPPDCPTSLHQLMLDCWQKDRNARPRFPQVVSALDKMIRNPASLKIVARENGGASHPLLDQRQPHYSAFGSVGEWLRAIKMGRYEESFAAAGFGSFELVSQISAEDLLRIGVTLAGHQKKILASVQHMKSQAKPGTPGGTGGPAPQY

[16] = target: T15, TYRO3 (Homo sapiens, UniProt Q06418); test: KinomeScan; type: binding; conditions: read-out: % Control
T15 construct: purchased DiscoveRx

[17] = target: T16, ADRA2A (Homo sapiens, UniProt P08913); test: GPCR Profiler; type: cell-based
T16 construct: host or cells: Chem-1 cells with promiscuous Gα15
T16 sequence (P08913 whole entry, species assumed): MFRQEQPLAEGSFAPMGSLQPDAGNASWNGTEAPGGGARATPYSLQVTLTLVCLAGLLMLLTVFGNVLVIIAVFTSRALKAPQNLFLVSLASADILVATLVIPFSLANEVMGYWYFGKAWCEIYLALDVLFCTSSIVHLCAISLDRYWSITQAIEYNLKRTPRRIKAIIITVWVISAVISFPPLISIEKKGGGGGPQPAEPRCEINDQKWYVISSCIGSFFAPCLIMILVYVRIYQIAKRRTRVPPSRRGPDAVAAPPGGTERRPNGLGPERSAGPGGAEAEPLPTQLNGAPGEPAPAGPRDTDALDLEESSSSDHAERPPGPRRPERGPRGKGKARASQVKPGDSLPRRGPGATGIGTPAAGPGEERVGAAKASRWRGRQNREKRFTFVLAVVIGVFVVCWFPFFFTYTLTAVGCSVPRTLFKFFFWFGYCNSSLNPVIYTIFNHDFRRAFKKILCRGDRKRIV

[18] = target: T17, PIK3C2B (Homo sapiens, UniProt O00750); test: KinomeScan; type: binding; conditions: read-out: % Control
T17 construct: purchased DiscoveRx (Fremont, CA)

[19] = target: T18, PKMYT1 (Homo sapiens, UniProt Q99640); test: KinomeScan; type: binding; conditions: read-out: % Control
T18 construct: purchased DiscoveRx (Fremont, CA)

[20] = target: T19, CRF1 (Homo sapiens, UniProt P34998); test: GPCR Profiler; type: cell-based
T19 construct: host or cells: Chem-1 cells with Gα15
T19 sequence (P34998 24-415): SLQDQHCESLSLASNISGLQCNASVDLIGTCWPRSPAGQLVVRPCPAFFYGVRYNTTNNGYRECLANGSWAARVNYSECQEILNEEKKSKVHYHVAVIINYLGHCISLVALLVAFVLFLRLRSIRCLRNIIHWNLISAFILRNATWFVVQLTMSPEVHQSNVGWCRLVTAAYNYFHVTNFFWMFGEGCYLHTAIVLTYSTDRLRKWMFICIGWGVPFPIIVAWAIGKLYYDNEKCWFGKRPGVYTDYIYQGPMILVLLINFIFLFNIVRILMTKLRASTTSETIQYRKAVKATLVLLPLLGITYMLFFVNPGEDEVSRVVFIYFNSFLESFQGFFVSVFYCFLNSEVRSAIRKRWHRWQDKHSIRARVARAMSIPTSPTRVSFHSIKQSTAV

[21] = target: T20, BB2 (Homo sapiens, UniProt P30550); test: GPCR Profiler; type: cell-based
T20 construct: host or cells: Chem-1 cells with promiscuous Gα15
T20 sequence (P30550 whole entry): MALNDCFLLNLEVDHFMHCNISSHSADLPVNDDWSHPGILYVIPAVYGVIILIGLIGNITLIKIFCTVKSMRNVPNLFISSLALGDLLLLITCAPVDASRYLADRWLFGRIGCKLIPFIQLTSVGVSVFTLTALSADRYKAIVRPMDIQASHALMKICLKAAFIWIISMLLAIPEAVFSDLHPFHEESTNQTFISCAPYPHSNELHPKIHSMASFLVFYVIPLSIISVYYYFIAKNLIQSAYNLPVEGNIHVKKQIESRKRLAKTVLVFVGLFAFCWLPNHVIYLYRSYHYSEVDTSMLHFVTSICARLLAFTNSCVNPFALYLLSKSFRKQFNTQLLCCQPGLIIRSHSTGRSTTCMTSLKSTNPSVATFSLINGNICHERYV

[22] = target: CDKL2 (Homo sapiens, UniProt Q92772); test: KinomeScan; type: binding; conditions: read-out: % Control
[23] = target: T21, MET(M1250T) (Homo sapiens, UniProt P08581, M1250T); test: KinomeScan; type: binding; conditions: read-out: % Control
T21 construct: purchased DiscoveRx (Fremont, CA)

[24] = system: A549; test: Clonogenicity (crystal violet); type: cell-based; conditions: 8 days
Description: A549 lung cancer cells were plated at 300 cells per well in a 6-well plate and on the next day were treated with increasing concentrations of OGM2 for 8 days. The plate was fixed with formalin and stained with crystal violet. See FIG. 27B for results at the indicated concentrations.

CCc1ccc2c(c1)C1(NN=C(c3cccc4ccccc34)S1)C(=O)N2 (stereo not shown) [OGM1, 5-ethyl-5′-naphthalen-1-ylspiro[1H-indole-3,2′-3H-1,3,4-thiadiazole]-2-one]
remaining binding at 10 µM [1]: 81%
remaining binding at 10 µM [2]: 90%
Antagonism ([3]; 10 uM): 3.2
Agonism ([3]; 12.5 uM): −0.4
remaining binding at 10 µM [4]: 100%
remaining binding at 10 µM [5]: 77%
remaining binding at 10 µM [6]: 100%
remaining binding at 10 µM [7]: 100%
remaining binding at 10 µM [8]: 100%
remaining binding at 10 µM [9]: 86%
remaining binding at 10 µM [10]: 98%
remaining binding at 10 µM [11]: 56%
remaining binding at 10 µM [12]: 90%
remaining binding at 10 µM [13]: 100%
remaining binding at 10 µM [14]: 95%
remaining binding at 10 µM [15]: 100%
remaining binding at 10 µM [16]: 100%
Antagonism ([17]; 10 uM): −5.1
Agonism ([17]; 12.5 uM): 0.1
remaining binding at 10 µM [18]: 95%
remaining binding at 10 µM [19]: 78%
Antagonism ([20]; 10 uM): 4.6
Agonism ([20]; 12.5 uM): −0.1
Antagonism ([21]; 10 uM): 0
Agonism ([21]; 12.5 uM): −0.2
remaining binding at 10 µM [22]: 100%
remaining binding at 10 µM [23]: 68%

CCc1ccc2c(c1)C1(NN=C(c3ccccc3)S1)C(=O)N2 (stereo not shown) [OGM2]
clonogenicity [24]: reduced the clonogenicity of lung cancer cells
